Measured values from patent publication US7582659B2, “Cyclopropyl group substituted oxazolidinone antibiotics and derivatives thereof” (Merck & Co., Inc., priority 2003, dated 2009).
Converted amounts (≈) assume the structure as drawn.

Legend:
Assay type in all cases: cell-based
[1] = system: Streptococcus pneumoniae PRQR (penicillin resistant, quinolone resistant); test: MIC, agar dilution method, Mueller-Hinton agar with 5% defibrinated horse blood; details: 35° C., 5 % CO2, 24 hours
Method: (§1) The following in vitro results were obtained based on an agar dilution method except for C. pneumoniae. The activity is presented as the minimum inhibitory concentration (MIC).
(§2) Streptococci and enterococci were tested on Mueller-Hinton agar supplemented with 5% defibrinated horse blood, using an approximate inoculum of 1×10^4 cfu/spot an incubation temperature of 35° C. in an atmosphere of 5 % CO2 for 24 hours. The MIC was defined as the lowest concentration at which no visible bacterial growth was observed.

[2] = system: Enterococcus faecium VRQR (vancomycin resistant, quinolone resistant); test: as above; details: 35° C., 5 % CO2, 24 hours
Method: as §1, §2

[3] = system: Streptococcus pyogenes IID692; test: as above; details: 35° C., 5 % CO2, 24 hours
Method: as §1, §2

[4] = system: Streptococcus pneumoniae IID553; test: as above; details: 35° C., 5 % CO2, 24 hours
Method: as §1, §2

[5] = system: Staphylococcus aureus CR (chloramphenicol resistant); test: MIC, agar dilution method, Mueller-Hinton agar; details: 35° C., 24 hours
Method: as §1
(§3) S. aureus and M. catarrhalis were tested on Mueller-Hinton agar, using an approximate inoculum of 1×10^4 cfu/spot an incubation temperature of 35° C. for 24 hours. The MIC was defined as the lowest concentration at which no visible bacterial growth was observed.

[6] = system: Morcaxella catarrhalis ATCC25238; test: MIC, agar dilution method, Mueller-Hinton agar; details: 35° C., 24 hours
Method: as §1, §3

[7] = system: Staphylococcus aureus Smith; test: MIC, agar dilution method, Mueller-Hinton agar; details: 35° C., 24 hours
Method: as §1, §3

[8] = system: Staphylococcus aureus MR (methicillin resistant); test: MIC, agar dilution method, Mueller-Hinton agar; details: 35° C., 24 hours
Method: as §1, §3

MIC [1] | MIC [2] | MIC [3] | MIC [4] | MIC [5] | MIC [6] | MIC [7] | MIC [8] | SMILES
0.25 µg/mL | 0.5 µg/mL | 0.25 µg/mL | 0.25 µg/mL | 1 µg/mL | 4 µg/mL | 0.25 µg/mL | 0.25 µg/mL | CC(=O)NC[C@H]1CN(c2ccc(-c3ccc([C@@]4(C#N)[C@@H]5CNC[C@@H]54)c(F)c3)c(F)c2)C(=O)O1.Cl [Example 15, N-[5(S)-3-[4-[4-[(1α,5α,6β)-6-Cyano-3-azabicyclo[3.1.0]hexan-6-yl]-3-fluorophenyl]-3-fluorophenyl]-2-oxooxazolidin-5-ylmethyl]acetamide Hydrochloride]
0.06 µg/mL (≈ 0.134 µM) | 0.06 µg/mL (≈ 0.134 µM) | 0.06 µg/mL (≈ 0.134 µM) | 0.06 µg/mL (≈ 0.134 µM) | 0.5 µg/mL (≈ 1.12 µM) | 0.5 µg/mL (≈ 1.12 µM) | 0.06 µg/mL (≈ 0.134 µM) | 0.06 µg/mL (≈ 0.134 µM) | N#C[C@]1(c2ccc(-c3ccc(N4C[C@H](Cn5ccnn5)OC4=O)cc3F)cn2)[C@@H]2COC[C@@H]21 [Example 23, 1-[5(R)-3-[4-[2-[(1α,5α,6β)-6-Cyano-3-oxabicyclo[3.1.0]hexan-6-yl]pyridin-5-yl]-3-fluorophenyl]-2-oxooxazolidin-5-ylmethyl]-1,2,3-triazole]
0.06 µg/mL | 0.125 µg/mL | 0.06 µg/mL | 0.125 µg/mL | 0.5 µg/mL | 1 µg/mL | 0.125 µg/mL | 0.125 µg/mL | CC(=O)NC[C@H]1CN(c2ccc(-c3ccc([C@@]4(C#N)[C@@H]5CNC[C@@H]54)nc3)cc2)C(=O)O1.Cl [Example 13, N-[5(S)-3-[4-[2-[(1α,5α,6β)-6-Cyano-3-azabicyclo[3.1.0]hexan-6-yl]pyridin-5-yl]phenyl]-2-oxooxazolidin-5-ylmethyl]acetamide Hydrochloride]
– | – | – | – | – | 4 µg/mL (≈ 11.9 µM) | – | – | CC(=O)NC[C@H]1CN(c2ccc(N3CCOCC3)c(F)c2)C(=O)O1 [Linezolid, reference compound]
